Test results from patent US10786459B2, “Twin-screw dry granulation for producing solid formulations” (R. P. Scherer Technologies LLC, priority 2016, dated 2020).
Where a name gives a salt, the structure may show the parent alone.

Legend:
Format in all cases: physicochemical
[1] = Dynamic vapor sorption (DVS) of OND; conditions: 25 °C
Protocol: Dynamic vapor sorption (DVS) was then used to measure the weight loss of OND during an isotherm dehydration study. The DVS apparatus (Surface Measurement Systems, London, UK) was a commercially available water sorption apparatus, which allowed an OND sample to be weighed under defined temperature and humidity conditions. About 14 mg of OND was weighed onto an aluminum pan. The DVS apparatus was programmed to run from 0% to 90% relative humidity (RH) at increments of 10% RH and then again going from 90% back to 0% RH at decrements of 10% RH. The study was conducted at 25° C. and in triplicate. The accuracy of the DVS apparatus was ±1.0% for the RH and ±0.2° C. for the temperature.

[2] = Hot-stage microscopy (HSM) of OND; conditions: heated 35 to 150 °C at 2 °C/min in silicone oil
Protocol: Hot-stage microscopy (HSM) was used to capture images at different stages of OND transformation. A glass slide with a sample of a small amount of OND dispersed in silicone oil was inserted into a hot-stage system (FTIR 600, Linkam Scientific Instruments, Surrey, UK). The OND sample was examined while being heated from 35° C. to 150° C. at a constant rate of 2° C./min. A camera-mounted optical microscope (Cary 620 IR, Agilent Technologies, Santa Clara, Calif., USA) equipped with a hot-stage was used to capture images at different stages of the OND transformation.

[3] = DSC/FTIR compatibility and crystallinity of OND (Example 3); conditions: 1:1 ratio
Source text: Differential scanning calorimetry (Diamond DSC, Perkin Elmer Life and Analytical Sciences, 710 Bridgeport Ave., Conn., USA) equipped with Pyris manager software (Shelton, Conn., USA) and Fourier transform infrared spectroscopy (FTIR, Agilent Technologies Cary 660, Santa Clara, Calif.) were used to study the compatibility of OND with various polymeric carriers in 1:1 ratio in a dry granulation process carried out in a twin-screw extruder to provide granules used to produce extended release tablets. Samples were prepared by hermetically sealing approximately 3-5 mg of pure OND or powder mixture in aluminum pans, which were then heated over a temperature range of 40-250° C. at a linear heating rate of 10° C./min under an inert nitrogen atmosphere. An FTIR bench equipped with a […]® attenuated total reflection (Pike Technologies, Madison, Wis.) was used to generate mid-infrared spectra in the range of 4000-650 cm-1, which was fitted with a single bounce diamond coated ZnSe internal reflection element. […] Thus, the crystalline structure of OND was preserved in the granules.

[4] = Thermogravimetric analysis (TGA) of OND
Protocol: Thermogravimetric analysis (TGA) was used to determine weight loss of OND due to dehydration. A weighed sample of OND was heated from 25° C. to 300° C. at a rate of 20° C./min in a platinum pan under an inert nitrogen atmosphere purge flowing at a rate of 20 ml per minute. Heating caused loss of 2 moles of loosely bound water from each mole of OND dihydrate.

weight gain (DVS) ([1]; RH increased beyond 20% up to 90%): 9.2%
weight gain (DVS) ([1]; RH increased from 0% to 10%): 2.67%
weight gain (DVS) ([1]; RH increased to 20%): 8.9%
weight loss (DVS) ([1]; at 0% RH): 9.5%
weight decrease (DVS) ([1]; desorption, at 10% RH): up to 4.44%
temperature at which crystals started dehydration (HSM) [2]: 90 °C
compatibility of OND with polymeric carriers [3]: compatible
temperature range of dehydration event (TGA) ([4]; TGA thermogram): 60-105 °C
weight lost (TGA) ([4]; heated from 60-105 °C, 20 °C/min, nitrogen): about 10%
Compound: Cc1nccn1CC1CCc2c(c3ccccc3n2C)C1=O (stereo not drawn) [OND, Ondansetron HCl dihydrate]
